Assay results reported in publication PMC11984388, “A brain-accessible peptide modulates stroke inflammatory response and neurotoxicity by targeting BDNF-receptor TrkB-T1 specific interactome” (Theranostics, 2025).

What was measured:
[1] = test system: neurons of primary cortical cultures; assay: Neuronal viability (MTT) in non-stimulated cultures; assay type: cell-based, rat
Description: Cultures were prepared from cerebral cortex of 18-day-old Wistar rat embryos, both genders indistinctly included. Unless otherwise indicated, glial growth was inhibited after 7 days in vitro (DIVs), experimental treatments taking place after 12 DIVs. These cultures present a high percentage of neurons, combined with glial cells, mostly astrocytes. To induce excitotoxicity, cultures were incubated with NMDA (100 µM) and its co-agonist glycine (10 µM), herein denoted simply as NMDA, which induce a strong excitotoxic response in mature neurons but have no effect on astrocyte viability,[47]. When indicated, cultures were preincubated for 30 min with indicated concentrations of Tat-derived CPPs before NMDA treatment, peptides being kept in the medium along treatment. Total cell or neuronal viability assessment was established by the thiazolyl blue formazan (MTT) reduction assay. Further details are provided as Supplementary material. […]
skull for 10 min. Br ain injury encompas se s damage to vas cular endothelium, platelet activation, and subs equent microvascula r thrombotic occlus ion of the irradiate d region. The ar eas underneath this ste reotaxic position that result irradiate d ar e the prima ry motor cortex and the prima ry soma tos ens ory cortex (hindlimb and forelimb). Once completed surgery, the incision was sutured, and mice were allowed to recover. […]

[2] = Immunoglobulin infiltration in ischemic brain; assay type: in vivo; settings: male mice, 24 h after insult; versus control peptide (Fig S7)
Description: (§1) The brains of animals injected one hour af ter the initiation of the photothrombotic damage with vehicle (saline), TMyc or TT1Ct (3 nmol/g) were process ed and cryoprote cted as before indicated. The duration of damage before sa cri f i ce was 5 h (male and female) or 24 h (male).
(§2) Coronal froze n se ctions were incubated with blocking solution as des cribe d in flota tion for 1 h at room temperature and then overnight with prima ry antibodies diluted in 4% goat se rum and 0.3% Triton X-100 in PBS at 4°C. After was hing, slides were incubated 1 h with Alexa Fluor 546- conjugated goat anti-rabbit or AlexaFluor 647- conjugated goat anti-mouse se condary antibodies to visua liz e the prima ry antibodies and DAPI (5 μg/ml). Only for Iba1 sta ining, blocking solution was 2.5% BS A, 5% goat se rum, 0.5% Triton X-100 in PBS, and se ctions were incubated with prima ry antibody 24 h at RT follow ed by was hing and Alexa Fluor 546-conjugated goat anti-rabbit and DAPI incubation for 1 h. Sections were then was hed in PBS, mounted on slides , dried for 15 min at 37 °C on a hot plate, or air dried overnight and then cover slipped with DPX or Prolong Diamond. Ce ll Obs erve d images were obtained with Zeiss microscope Observe r.Z1 using a 10x Plan-Apochromatic objective. […]

Iba1 = assay: Immunohistochemistry of microglia in ischemic brain; assay type: in vivo; settings: male mice, 3 nmol/g, 24 h of insult; versus TMyc
Description: as §1, §2

CD68+ cells = assay: Immunohistochemistry of macrophages/activated microglia in ischemic brain; assay type: in vivo; settings: male mice, 3 nmol/g, 24 h of insult; versus TMyc
Description: as §1, §2

Ac-YGRKKRRQRRRPPFVLFHKIPLDG-NH2 [TT1Ct]
Intrinsic toxicity ([1]; concentrations lower than 25 µM): not intrinsically toxic | Toxicity for non-stimulated cultures ([1]; higher dose employed (25 µM)): toxic | Immunoglobulin infiltration [2]: reduced immunoglobulin infiltration | Effect on Iba1 in reactive microglia (Iba1): limited Iba1 upregulation | Effect on CD68+ cells in the infarct and surrounding tissues (CD68+ cells): greatly decreased
